One experiment relates to C57BL/6 mice. Briefly: Bilateral ACL-injury mouse model: knee histology, OARSI score. Type of experiment: in vivo. The source says: Some of the studies reported below involved a murine model of animals which were subjected to trauma by injuring an ACL (as an exemplar of injury to any of the four knee ligaments). Without wishing to be bound by theory, it is believed that injury to the ACL changes the mechanical loading on the joint, promoting imbalanced metabolism in articular cartilage, and promoting the development of post-traumatic OA, or “PTOA.” Animals were divided into four cohorts: the first group, the controls, were not subjected to trauma, the second group underwent bilateral ACL injury, but no further treatment, the third group underwent bilateral ACL injury, and was then administered saline solution at days 3, 10 and 17 post-injury, and the fourth group underwent bilateral ACL injury, and was then administered GsMTx4 peptide at days 3, 10 and 17 post-injury. The animals were evaluated by gait analysis, a cell vulnerability assay, and a histological evaluation/immunofluorescence assay. In one aspect, the assays compared the expression of Piezo1 and Piezo2 in chondrocytes from injured joints, from uninjured controls, and from injured joints injured and then treated with GsMTx4 and from joints that were injured and then treated only with saline solution. The study also looked at calcitonin gene-related peptide (“CGRP”)-containing (“CGRP^+”) nerve endings. CGRP^+ nerves have been identified as principal coordinators of thermal and mechanical sensitivity in various pain models. See, e.g., Powell, et al., Nat Commun 12, 5812 (2021); doi.org/10.1038/s41467-021-26100-6.
Experiments were performed in a non-invasive ACL-injury mouse model. […] Both male and female mice were used in the four groups and results were tracked by gender as well as by group.
Animals in the ACL-injury groups were provided with buprenorphine as an analgesic, placed under anesthesia by isoflurane inhalation, and had the injuries induced with a custom-built strain gauge-instrumented device by applying axial force along the femoral shaft until a force drop was felt and a distinct “pop” sound was heard. […]

Experiment [1] has as its system Piezo1. Kind of experiment: Massive rotator cuff tear mouse model: Piezo1 immunohistochemistry. Type of experiment: in vivo. The method, then: A massive rotator cuff tear (RCT) model was performed by surgical ligation of the supraspinatus and infraspinatus tendons of the right shoulder of 14-week-old C57Bl/6 male and female mice through a deltoid splitting approach. Mice were anesthetized with 2% isoflurane gas mixed with oxygen. A single dose of buprenorphine SR (0.5 mg/kg) was injected subcutaneously at the nape. The right shoulder was prepped using a chemical hair removal agent, followed by betadine solution for 2 minutes and a rinse with 70% ethanol. The remaining steps were performed under sterile technique. A #11 scalpel blade was used to sharply incise the skin and subcutaneous tissues in a longitudinal incision over the palpable border of the lateral shoulder. The deltoid fascia and muscle were sharply incised in line with the skin incision with care not to dissect distally along the humerus to protect the axillary nerve. […] Animals were monitored daily for 3 days post-operatively, and no adverse events were noted. […]
For Piezo1 immunohistochemistry, deparaffinized and rehydrated slides were incubated in citrate buffer (10 mM sodium citrate, 0.05% Tween-20, pH 6.0) for […] at 75° C. […] Chondrocyte Piezo1 protein expression was quantified by average threshold intensity of immunofluorescence by ImageJ analysis through raw intensity averaging. […]

The subject of the next experiment is chondrocytes. Briefly: Mechano-vulnerability (impact loading) assay on cartilage of treated ACL-injured mice. Format: in vivo, mouse. Conditions: ACL-I mice, 3 weeks post-ACL-I, versus saline-treated ACL-I mice. The source says:
OA was induced by a bilateral anterior cruciate ligament-injury (ACL-I) in 8-week-old C57BL/6 mice. Piezo1-labeling intensity in articular chondrocytes and nerves in subchondral bone, the OA severity (OARSI score), the mechano-vulnerability of chondrocytes, and gait parameters was compared among four experimental groups-Control (uninjured), ACL-injured, ACL-injured with saline administration, and ACL-injured with GsMT4 treatment—at 3-weeks post-ACL-I.
FIG. 1E is a diagram showing impact loading applied to cartilage over a portion of a mouse bone as part of an assay for studying the resulting area of chondrocyte death, sometimes referred to a “mechano-death” or “mechano-vulnerability” assay. See, Kotelsky, et al., Osteoarthritis and Cartilage Open, 4 (1): 100227 (2022); doi.org/10.1016/j.ocarto. 2021.100227.
FIG. 2C presents two sets of two photos from animals that have undergone bilateral ACL injury. The animal in the photos in the top row was injected after the injury with saline solution (“ACLL+saline”), while the animal in the bottom row was injected at the same time points post-injury with GsMTx4 (“ACLI+GsMTx4”). The left photos show the amount of dead cells (in red, in the color original, compared to living cells, which have taken up a green label) and after application of a 1 mJ force. FIG. 2D presents a graph showing the results of the studies.

The test system of experiment [2] is Piezo1. Kind of experiment: Bilateral ACL-injury mouse model: Piezo1 labeling (immunofluorescence). Format: in vivo. Conditions: ACL-I mice, 3 weeks post-ACL-I, versus saline-treated ACL-I mice. From the text: Some of the studies reported below involved a murine model of animals which were subjected to trauma by injuring an ACL (as an exemplar of injury to any of the four knee ligaments). Without wishing to be bound by theory, it is believed that injury to the ACL changes the mechanical loading on the joint, promoting imbalanced metabolism in articular cartilage, and promoting the development of post-traumatic OA, or “PTOA.” Animals were divided into four cohorts: the first group, the controls, were not subjected to trauma, the second group underwent bilateral ACL injury, but no further treatment, the third group underwent bilateral ACL injury, and was then administered saline solution at days 3, 10 and 17 post-injury, and the fourth group underwent bilateral ACL injury, and was then administered GsMTx4 peptide at days 3, 10 and 17 post-injury. The animals were evaluated by gait analysis, a cell vulnerability assay, and a histological evaluation/immunofluorescence assay. In one aspect, the assays compared the expression of Piezo1 and Piezo2 in chondrocytes from injured joints, from uninjured controls, and from injured joints injured and then treated with GsMTx4 and from joints that were injured and then treated only with saline solution. The study also looked at calcitonin gene-related peptide (“CGRP”)-containing (“CGRP^+”) nerve endings. […]

Entries after “also recorded” stand apart in the source; their conditions may differ. No end group written: not given here.

As to “GsMTx4 (GCLEFWWKCNPNDDKCCRPKLKCSKLFKLCNFSF-NH2; ends and bridges not checked; listed as Grammostola spatulata)”, the “OA severity (OARSI score)” value in the experiment on C57BL/6 mice (ACL-I mice, GsMTx4 at days 3, 10, 17 post-injury, 3 weeks post-ACL-I, versus saline-treated ACL-I mice) is recorded as “reduced OARSI score; also recorded: decreased OA degrees significantly”. The “combined OARSI score for the femur and the tibia (FIG. 2B)” value in the experiment on C57BL/6 mice (bilateral ACL injury, subcutaneous injection, versus not treated or saline-treated animals) was “much lower OARSI score”. In the experiment on C57BL/6 mice (bilateral ACL injury, versus saline-injected mouse (cartilage severely eroded and disrupted)), the “cartilage on femur and tibia (histology, FIG. 2A)” value is “still a layer of cartilage almost all of the femur and tibial surface”. The “humeral head chondrocyte Piezo1 protein expression versus contralateral control joint” value in the experiment with Piezo1 [1] (RC ligation, subcutaneous twice weekly, 14 weeks post-operatively, p<0.05) was “significantly lower humeral head chondrocyte Piezo1 protein expression”. Besides, the “Piezo1 expression in cells from RCT shoulders versus animals not treated with GsMTx4” value in the experiment with Piezo1 [1] (RCT, treated post-injury with GsMTx4) is listed as “reduced expressed of Piezo1”. In the experiment on chondrocytes, the “area of chondrocyte death by mechanical impact” value is recorded as “decreased area of chondrocyte death by impact; also recorded: decreased impact-induced mechanical-susceptibility”. Further, in the experiment with Piezo1 [2], the “Piezo1-labeling in chondrocytes and nerves in subchondral bones” value is “reduced Piezo1-labeling in chondrocytes and nerves in subchondral bones”.
